Tested on: Protease enzyme
Assay: Residual protease activity in liquid detergent formulation after storage at 37° C. (tetrapeptide substrate assay)
Format: biochemical
Conditions: activity determined at 40° C., TRIS pH 9, relative to t=0; for Residual activity after 2 weeks, 0.05% BHT / Residual activity after 4 weeks, 0.05% BHT: 'base' liquid detergent formulation + 0.06% by weight perfume component + 0.05% by weight BHT; for Residual activity after 2 weeks, 0.05% BHT / Residual activity after 2 weeks, No BHT: 2 weeks storage at 37° C.; for Residual activity after 4 weeks, 0.05% BHT / Residual activity after 4 weeks, No BHT: 4 weeks storage at 37° C.; for Residual activity after 2 weeks, No BHT / Residual activity after 4 weeks, No BHT: 'base' liquid detergent formulation + 0.06% by weight perfume component
Procedure: To various samples of this ‘base’ liquid formulation 0.06% by weight based on said formulation of several types of perfume component—as indicated in the tables below—were added such that, as a result, each sample contains a different type of perfume component. To other samples of this ‘base’ formulation not only 0.06% by weight of said perfume components but also 0.05% by weight BHT (2,6-di-tert-butyl hydroxy toluene) were added.
The residual activity of the protease enzyme in all thus-formed formulations after 2 weeks and 4 weeks storage at 37° C., was determined at 40° C. in a TRIS pH 9 buffer and using tetrapeptide as substrate. For this determination, the following protocol was used:
Samples of 70 mg of the tested liquid formulation were diluted in 10.00 ml MilliQ water. 10 μl of this solution was added to an assay of 205 μl containing 74.4 mM TRIS pH9 and 0.494 mM tetrapeptide (succinyl-Ala-Ala-Pro-Phe-p-Nitroanilide). The absorbance of the tested samples at a wavelength of 450 nm was measured for 15 minutes at 40° C., using a spectrophotometer. The absolute changes in absorbance as compared to the absorbance measured on a freshly prepared calibration sample were correlated to the measured activity of such freshly prepared sample. The measured protease enzyme activity is expressed as GU/ml.
The residual enzyme activity (expressed as %) is the enzyme activity after storage of the liquid formulation concerned divided by the enzyme activity measured at t=0.
Tables 1 and 2 show the effect of the addition of 0.05% by weight of BHT on the residual enzyme activity in ‘base’ liquid detergent formulations additionally containing 0.06% by weight of the indicated perfume components, after 2 weeks storage at 37° C. respectively 4 weeks storage at 37° C.

Row | Residual activity after 2 weeks, 0.05% BHT [%] | Residual activity after 4 weeks, 0.05% BHT [%] | Residual activity after 2 weeks, No BHT [%] | Residual activity after 4 weeks, No BHT [%] | Molecule
1 | 70 | 54 | 14 | 4 | CCCCCCCCCCC=CC=O [Tridecyclenaldehyde]
2 | 85 | 79 | 51 | 17 | CC1=CCC(=C(C)C)CC1 [Terpinolene]
3 | 68 | 46 | 13 | 3 | Octenal
4 | 72 | 62 | 48 | 23 | Terpinegene G
5 | 80 | 68 | 39 | 9 | CC(C=O)Cc1ccc(C(C)(C)C)cc1 (centres unmarked) [Lilial]
6 | 84 | 78 | 39 | 14 | CCC(=O)/C=C/C1C(C)=CCCC1(C)C (stereo not drawn) [Alpha methylionone]
7 | 82 | 72 | 16 | 5 | CC1=CC(C)C(C=O)CC1 (centres unmarked) [Zestover]

Row | Molecule | Residual activity after 2 weeks, 0.05% BHT [%] | Residual activity after 4 weeks, 0.05% BHT [%] | Residual activity after 2 weeks, No BHT [%] | Residual activity after 4 weeks, No BHT [%]
8 | CC(C)=C1CC[C@@H](C)CC1=O [Pulegone] | 82 | 76 | 45 | 16

Reference: patent US7902138B2, “Liquid detergent composition” (The Sun Products Corporation, priority 2003, dated 2011)
